Results from patent US10071095B2, “1,2,4-triazolo [4,3-A] pyridine derivatives and their use for the treatment of neurological and psychiatric disorders” (JANSSEN PHARMACEUTICALS, INC., priority 2009, dated 2018).

molecular target: T1, human mGluR2 receptor (Homo sapiens, UniProt Q14416); test: [35S]GTPγS binding assay, positive allosteric modulation (GTPγS-PAM) in presence of EC20 glutamate; type: biochemical; conditions: in presence of glutamate at EC20; average pEC50 if more experiments; ‡ means tested once
T1 construct: expressed in transfected cells; host or cells: CHO cells
Experimental: [^35S]GTPγS Binding Assay
The [^35S]GTPγS binding assay is a functional membrane-based assay used to study G-protein coupled receptor (GPCR) function whereby incorporation of a non-hydrolysable form of GTP, [^35S]GTPγS (guanosine 5′-triphosphate, labelled with […] ^35S), is measured. The G-protein α subunit catalyzes the exchange of guanosine 5′-diphosphate (GDP) by guanosine triphosphate (GTP) and on activation of the GPCR by an agonist, [^35S]GTPγS, becomes incorporated and cannot be cleaved to continue the exchange cycle (Harper (1998) Current Protocols in Pharmacology 2.6.1-10, John Wiley & Sons, Inc.). […] Here we describe the use of the [^35S]GTPγS binding assay using membranes from cells transfected with the human mGluR2 receptor and adapted from Schaffhauser et al. ((2003) Molecular Pharmacology 4:798-810) for the detection of the positive allosteric modulation (PAM) properties of the compounds of this invention.
CHO-cells were cultured to pre-confluence and stimulated with 5 mM butyrate for 24 h, prior to washing in PBS, and then collected by scraping in homogenisation buffer (50 mM Tris-HCl buffer, pH 7.4, 4° C.). Cell lysates were homogenized briefly using an ultra-turrax homogenizer. The homogenate was centrifuged at 16,000 RPM (Sorvall RC-5C plus rotor SS-34) for 10 minutes and the supernatant discarded. The pellet was resuspended in 5 mM Tris-HCl, pH 7.4 and centrifuged again (18,000 RPM, 20 min, 4° C.). The final pellet was resuspended in 50 mM Tris-HCl, pH 7.4 and stored at −80° C. in appropriate aliquots before use. Protein concentration was determined by the Bradford method (Bio-Rad, USA) with bovine serum albumin as standard.
Measurement of mGluR2 positive allosteric modulatory activity of test compounds was performed as follows. Test compounds and glutamate were diluted in assay buffer containing 10 mM HEPES acid, 10 mM HEPES salt, pH 7.4, 100 mM NaCl, 3 mM MgCl2 and 10 μM GDP. Human mGlu2 receptor-containing membranes were thawed on ice and diluted in assay buffer supplemented with 14 μg/ml saponin. Membranes were pre-incubated with compound alone or together with a predefined (˜EC20) concentration of glutamate (PAM assay) for 30 min at 30° C. After addition of [^35S]GTPγS (f.c. 0.1 nM) microplates were shaken briefly and further incubated to allow [^35S]GTPγS incorporation on activation (30 minutes, 30° C.). Final assay mixtures contained 7 μg of membrane protein in 10 mM HEPES acid, 10 mM HEPES salt, pH 7.4, 100 mM NaCl, 3 mM MgCl2, 10 µM GDP and 10 μg/ml saponin. Total reaction volume was 200 μl. Reactions were terminated by rapid filtration through Unifilter-96 GF/B filter plates (Packard, Meriden, Conn.) using a 96-well Packard filtermate harvester. Filters were washed 6 times with ice-cold 10 mM NaH2PO4/10 mM Na2HPO4, pH 7.4. Filters were then air-dried, and 40 μl of liquid scintillation cocktail (Microscint-O) was added to each well. Membrane-bound radioactivity was counted in a Microplate Scintillation and Luminescence Counter from Packard.
The concentration-response curves of representative compounds of the present invention-obtained in the presence of EC20 of mGluR2 agonist glutamate to determine positive allosteric modulation (PAM)—were generated using the Lexis software interface (developed at J&J).

T1 sequence (Q14416 19-872): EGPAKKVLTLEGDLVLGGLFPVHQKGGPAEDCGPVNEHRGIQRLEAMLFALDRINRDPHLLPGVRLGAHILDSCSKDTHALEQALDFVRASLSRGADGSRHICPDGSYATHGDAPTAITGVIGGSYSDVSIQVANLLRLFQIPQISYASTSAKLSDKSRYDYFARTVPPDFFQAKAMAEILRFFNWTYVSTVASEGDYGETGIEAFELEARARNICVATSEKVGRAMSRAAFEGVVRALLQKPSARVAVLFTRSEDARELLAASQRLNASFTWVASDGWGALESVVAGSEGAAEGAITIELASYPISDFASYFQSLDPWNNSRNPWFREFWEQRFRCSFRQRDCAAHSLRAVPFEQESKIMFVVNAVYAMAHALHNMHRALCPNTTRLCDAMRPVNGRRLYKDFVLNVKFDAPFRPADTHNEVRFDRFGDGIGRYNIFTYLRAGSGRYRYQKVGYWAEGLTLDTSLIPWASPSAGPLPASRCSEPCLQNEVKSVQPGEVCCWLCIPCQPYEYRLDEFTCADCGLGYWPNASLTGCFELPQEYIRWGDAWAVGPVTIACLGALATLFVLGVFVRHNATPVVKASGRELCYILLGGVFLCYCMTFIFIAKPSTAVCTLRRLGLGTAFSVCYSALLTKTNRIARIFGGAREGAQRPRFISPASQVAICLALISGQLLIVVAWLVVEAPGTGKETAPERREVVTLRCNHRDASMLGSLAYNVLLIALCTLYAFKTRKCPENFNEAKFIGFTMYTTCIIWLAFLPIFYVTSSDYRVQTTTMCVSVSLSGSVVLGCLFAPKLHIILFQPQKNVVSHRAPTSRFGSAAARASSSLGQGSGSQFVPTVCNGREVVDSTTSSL

Structure (SMILES)	GTPγS - hR2 PAM pEC50
CCc1nnc2c(Cl)c(N3CCC(c4ccccc4)CC3)ccn12 [compound 25]	6.42
COc1c(F)cccc1C1CCN(c2ccn3c(CC(F)(F)F)nnc3c2C#N)CC1 [compound 27]	7.51
CCCc1nnc2c(C#N)c(N3CCC(c4ccccc4)CC3)ccn12 [compound 28]	6.53
N#Cc1c(N2CCC(c3ccccc3)CC2)ccn2c(C3(C(F)(F)F)CC3)nnc12 [compound 31]	6.27
N#Cc1c(N2CCC(c3ccccc3)CC2)ccn2c(COCc3ccccc3)nnc12 [compound 32]	7.03
CC(F)(F)c1nnc2c(C#N)c(N3CCC(c4ccccc4)CC3)ccn12 [compound 33]	5.15‡
N#Cc1c(N2CCC(c3ccccc3)CC2)ccn2c(CC3CCC3)nnc12 [compound 34]	7.35
CC(C)(C)c1nnc2c(C#N)c(N3CCC(c4ccccc4)CC3)ccn12 [compound 35]	5.91
N#Cc1c(N2CCC(c3ccccc3)CC2)ccn2c(CN3CCCC3)nnc12 [compound 36]	5.95‡
N#Cc1c(N2CCC(c3ccccc3)CC2)ccn2c(CN3CCC(C(F)(F)F)CC3)nnc12 [compound 37]	6.51
N#Cc1c(N2CCC(F)(c3ccccc3)CC2)ccn2c(CC3CC3)nnc12 [compound 40]	6.67
COc1cccc(F)c1C1CCN(c2ccn3c(CC(F)(F)F)nnc3c2C#N)CC1 [compound 51]	8.35‡
N#Cc1c(N2CCC(F)(c3ccccc3)CC2)ccn2c(CC(F)(F)F)nnc12 [compound 54]	6.95
COc1cccc(F)c1C1CCN(c2ccn3c(CC4CC4)nnc3c2Cl)CC1 [compound 55]	8.22
COc1cccc(F)c1C1CCN(c2ccn3c(CC4CC4)nnc3c2C#N)CC1 [compound 57]	8.16‡
N#Cc1c(N2CCN(C3CCC(C(F)(F)F)CC3)CC2)ccn2c(CC(F)(F)F)nnc12 (stereo not drawn) [compound 58]	6.23
N#Cc1c(N2CCN(Cc3cccc(C(F)(F)F)c3)CC2)ccn2c(CC(F)(F)F)nnc12 [compound 60]	6.33
COc1ccc(F)cc1C1CCN(c2ccn3c(CC(F)(F)F)nnc3c2Cl)CC1 [compound 61]	7.98

Structure (SMILES)	GTPγS - hR2 PAM pEC50
COc1cccc(F)c1C1CCN(c2ccn3c(CC(F)(F)F)nnc3c2Cl)CC1 [compound 65]	8.41
FC(F)(F)CCc1nnc2c(Cl)c(N3CCC(c4ccccc4)CC3)ccn12 [compound 71]	6.65‡
N#Cc1c(N2CCN(C3CCC(C(F)(F)F)CC3)CC2)ccn2c(CC(F)(F)F)nnc12 (stereo not drawn) [compound 73]	6.13
CC(C)Cc1nnc2c(C#N)c(N3CCC(c4ccccc4)CC3)ccn12 [compound 74]	6.85
CCOCc1nnc2c(Cl)c(N3CCC(c4ccccc4OC)CC3)ccn12 [compound 82]	7.51
CCOCc1nnc2c(Cl)c(N3CCC(c4cc(F)ccc4OC)CC3)ccn12 [compound 83]	7.64
CCOCc1nnc2c(Cl)c(N3CCC(c4c(OC)ccc(F)c4F)CC3)ccn12 [compound 84]	7.86
CCOCc1nnc2c(Cl)c(N3CCC(c4c(F)cc(F)cc4OC)CC3)ccn12 [compound 85]	8.06
CCOCc1nnc2c(Cl)c(N3CCC(c4c(F)ccc(F)c4OC)CC3)ccn12 [compound 86]	7.95
CCCc1nnc2c(Cl)c(N3CCC4(CC3)COc3ccccc34)ccn12 [compound 88]	6.18
CCCc1nnc2c(Cl)c(N3CCC4(CC3)OCc3ccccc34)ccn12 [compound 93]	6.53
CCCc1nnc2c(Cl)c(N3CCN(c4ccc(F)cc4F)CC3)ccn12 [compound 95]	5.93‡
CCc1nnc2c(Cl)c(N3CCC4(CC3)OCc3ccccc34)ccn12 [compound 102]	6.5
CCOCc1nnc2c(Cl)c(N3CCN(c4ccccc4)C(C)(C)C3)ccn12 [compound 103]	5.63‡
CC1(C)OC2(CCN(c3ccn4c(CC5CC5)nnc4c3Cl)CC2)c2ccccc21 [compound 104]	7.7
CC1(C)CN(c2ccn3c(CC4CC4)nnc3c2Cl)CCN1c1ccccc1 [compound 105]	6.17‡
CCCc1nnc2c(Cl)c(N3CCC4(CC3)OCc3c(F)cccc34)ccn12 [compound 106]	6.45
CCCc1nnc2c(Cl)c(N3CCC4(CC3)OC(C)(C)c3ccccc34)ccn12 [compound 107]	7.22

Further lines, results first:

GTPγS - hR2 PAM pEC50	Structure (SMILES)
7.74	FC(F)(F)Cc1nnc2c(C(F)(F)F)c(N3CCC(c4ccccc4)CC3)ccn12 [compound 38]
7.52	FC(F)(F)c1cccc(C2CCN(c3ccn4c(CC5CC5)nnc4c3Cl)CC2)c1 [compound 39]
6.83	FC1(c2ccccc2)CCN(c2ccn3c(CC4CC4)nnc3c2Cl)CC1 [compound 42]
6.07‡	N#Cc1c(N2CCN(C3CCC(C(F)(F)F)CC3)CC2)ccn2c(CC3CC3)nnc12 (stereo not drawn) [compound 45]
6.9‡	Cc1cccnc1OC1CCN(c2ccn3c(CC4CC4)nnc3c2Cl)CC1 [compound 48]
6.98‡	N#Cc1c(N2CCN(Cc3ccc(OCC4CC4)c(Cl)c3)CC2)ccn2c(CC(F)(F)F)nnc12 [compound 52]
6.02‡	FC(F)(F)Cc1nnc2c(Cl)c(N3CCC(c4ccccn4)CC3)ccn12 [compound 56]
7.17	Cc1cccnc1OC1CCN(c2ccn3c(CC(F)(F)F)nnc3c2Cl)CC1 [compound 59]
6.41	FC(F)(F)c1c(N2CCC(c3ccccc3)(N3CCOCC3)CC2)ccn2c(CC3CC3)nnc12 [compound 62]
6.08	FC(F)(F)Cc1nnc2c(Cl)c(N3CCN(c4ncccn4)CC3)ccn12 [compound 63]
6.65	FC(F)(F)c1c(N2CCN(c3ncccn3)CC2)ccn2c(CC3CC3)nnc12 [compound 64]
7.36	CCCc1nnc2c(C(F)(F)F)c(N3CCC(c4ccccc4)CC3)ccn12 [compound 67]
7.55	Cc1cccnc1OC1CCN(c2ccn3c(CC4CC4)nnc3c2C(F)(F)F)CC1 [compound 68]
7.06	CC1(C)CN(c2ccn3c(CC4CC4)nnc3c2C(F)(F)F)CCN1c1ccccc1 [compound 72]
7.68‡	FC(F)(F)c1c(N2CCC3(CC2)OCc2ccccc23)ccn2c(CC3CC3)nnc12 [compound 77]
7.28	FC(F)(F)c1c(N2CCC3(CC2)COc2ccccc2O3)ccn2c(CC3CC3)nnc12 [compound 79]
7.27	FC(F)(F)c1c(N2CCC(F)(c3ccccc3)CC2)ccn2c(COCC3CC3)nnc12 [compound 80]
6.94	CCCc1nnc2c(C(F)(F)F)c(N3CCC4(CC3)COc3ccccc34)ccn12 [compound 87]
6.46‡	CCc1nnc2c(C(F)(F)F)c(N3CCC4(CC3)COc3ccccc34)ccn12 [compound 89]
6.61	COc1cnc(N2CCN(c3ccn4c(CC5CC5)nnc4c3C(F)(F)F)CC2)nc1 [compound 90]
7.27	COc1cccnc1C1CCN(c2ccn3c(CC4CC4)nnc3c2C(F)(F)F)CC1 [compound 91]
6.87	COc1cccnc1N1CCN(c2ccn3c(CC4CC4)nnc3c2C(F)(F)F)CC1 [compound 92]
6.03	Clc1c(N2CCN(c3ccccc3)CC2)ccn2c(CC3CC3)nnc12 [compound 99]
6.24	FC(F)(F)Cc1nnc2c(Cl)c(N3CCN(c4ccccc4)CC3)ccn12 [compound 101]
